{"source": "patent US6087358A", "about": "(priority 1997, dated 2000)", "key": {"[1]": {"system": "Mycobacterium bovis BCG (recombinant strain)", "assay": "microbe, parasite or virus in culture", "format": "cell-based", "conditions": "Mycobacterium tuberculosis variant bovis BCG, BCG, 144 h; 6 days 37° C.; read-out: MIC, column A, 3(S) compounds"}, "[2]": {"system": "Clostridium difficile ATCC 17857", "assay": "In vitro inhibition of Clostridium difficile (Oxyrase broth microdilution MIC)", "format": "cell-based", "conditions": "Clostridioides difficile, ATCC17857; Clostridium difficile ATCC 17857, Oxyrase broth; read-out: MIC, column D, 3(S) compounds"}, "Cryptosporidium parvum": {"system": "Cryptosporidium parvum", "assay": "Inhibition of Cryptosporidium parvum (ELISA, infected HCT-8 monolayers)", "format": "cell-based", "conditions": "Cryptosporidium parvum, HCT-8, 48 h, read-out: Percent Inhibition of C. parvum", "procedure": "Susceptibility testing against Cryptosporidium was performed according to published procedures (K. Woods, M. Nesterenko, S. Upton, \"Development of a microtiter ELISA to quantify development of Cryptosporidium parvum in vitro,\" FEMS Microbiology Letters, 128:89-94 (1995).\nCompounds were solubilized to a concentration of 100 mg/mL in 100% DMSO. DMSO solutions of test compounds were added to the test wells of a microplate at a volume that produced a final concentration of DMSO of 0.2%. Monolayers of human ileocecal adenocarcinoma cells (HCT-8) were prepared by growth in RPMI 1640 medium in 96-Well tissue culture trays for 24 h. Oocysts of C. parvum were allowed to excyst in 10% bleach for 10 min prior to use. Monolayers were then infected with 2-3×10^4 oocysts/well and incubated in the presence or absence of compound for 48 h at 35° C. in 5% CO2 and 95% humidity. Background consisted of wells containing killed oocysts (freeze thaw cycle following 30 sec exposure to liquid nitrogen). Growth control wells were infected with 2-3×10^4 oocysts/well in the absence of test compounds. At the end of incubation, wells were washed and fixed by adding 100 uL of 4% formalin in phosphate buffered saline (pH 7.3) per well for 2 h. After blocking with 1% bovine serum albumin, and 0.002% Tween 20, 50 uL of rat anti-Cryptosporidium membrane protein antiserum was added. After 30 min, wells were washed in PBS and 50 uL of secondary antibody (goat anti-rat antibody conjugated with horseradish peroxidase) was added. After 20-30 min, wells were washed again in PBS and 50 uL of 3,3',5,5'-tetramethylbenzidine solution was added. Plates were allowed to develop for 10-15 min and the optical density was read at 630 nm. Percent inhibition was calculated by comparing the optical density of the drug treated group to that of the untreated control."}, "Helicobacter pylori": {"system": "Helicobacter pylori", "assay": "In vitro inhibition of Helicobacter pylori (broth microdilution MIC)", "conditions": "Helicobacter pylori"}, "[3]": {"system": "Mycobacterium tuberculosis (rMTB)", "assay": "In vivo antimycobacterial activity against M. tuberculosis (rMTB) in spleens of mice", "design": "species or system Mycobacterium tuberculosis Erdman, in female BALB/c mice", "conditions": "25 mg/kg daily oral gavage, CM-2, 10 days, control 422,866 (PA-824, 636, 1297) or 362,274 (others)"}, "[4]": {"system": "Mycobacterium tuberculosis (rMTB)", "assay": "In vivo antimycobacterial activity against M. tuberculosis (rMTB) in lungs of mice", "design": "species or system Mycobacterium tuberculosis Erdman, in female BALB/c mice", "conditions": "25 mg/kg daily oral gavage, CM-2, 10 days, control 117,258 (PA-824, 636, 1297) or 22,751 (others)"}, "[5]": {"system": "Helicobacter pylori Strain 4187E", "assay": "In vivo activity against Helicobacter pylori strain 4187E in mice", "design": "species or system in outbred female white mice", "conditions": "oral gavage, four days", "excerpt": "Outbred female white mice (20 grams) were infected by oral gavage with 10^7 -10^8 colony forming units of H. pylori strain 4187E (originally isolated from a patient with a duodenal ulcer). […] Treatment continued for four days. Clarithromycin, administered at the same concentration and for the same duration, was included as a positive control. One group of animals also received an equal volume of formulation vehicle alone, to provide a negative control.\nFive days after cessation of treatment, all animals were sacrificed, the stomachs were removed, opened, and the contents washed out. The entire mucosal surface was then spread evenly over the surface of an agar plate containing antibiotics appropriate for the prevention of growth of microorganisms other than Helicobacter spp. After seven days incubation under microaeropilic conditions at 37° C., culture plates were evaluated for bacterial growth."}, "Helicobacter felis": {"system": "Helicobacter felis", "assay": "In vivo activity against Helicobacter felis in mice (urease test of stomach biopsy)", "design": "species or system in female CD-1 mice", "conditions": "50 mg/kg three times daily oral gavage, CM-2, four days; vehicle and untreated 100", "procedure": "Female CD-1 mice weighing 30 grams were infected by oral gavage with 10^8 -10^9 colony forming units of H. felis. This infection process was repeated two, and four days, thereafter. Colonization of the stomach was allowed to occur over a seven day period. Animals were segregated into groups of five, and were treated three times daily by oral gavage with 50 mg/kg of test drugs prepared in the CM-2 formulation vehicle (Example 52). Treatment continued for four days. One group of animals received an equal volume of formulation vehicle alone, to ensure that the vehicle had no effect on the Helicobacter infection. A separate untreated control group was also included.\nAll animals were then sacrificed, the stomachs were removed, opened, and the contents washed out. A five millimeter diameter biopsy was removed, and transferred to a urease test solution containing a pH-sensitive dye, which was then incubated at 37° C. incubator for 24 hours. A blue or purple coloration in this test solution signifies a positive reaction, indicating the continued presence of viable Helicobacter bacteria; a negative result is indicated by a yellow coloration. Viable Helicobacter bacteria produce a urease enzyme which converts urea, of which there is an abundant supply in the stomach (from saliva and gastric juices), into bicarbonate and ammonia, which are strong bases. This mechanism is considered to provide conditions more amenable to the survival of Helicobacter in the otherwise acidic conditions prevalent in the stomach."}}, "note": "Where two headings read alike, the source gives them in different places."}
{"smiles": "CCCCCCCCC(=O)N[C@@H]1COc2nc([N+](=O)[O-])cn2C1", "note": "[PA-1139]", "values": [{"measurement": "MIC", "setting": "[1]", "result": 0.06, "unit": "µg/mL"}, {"measurement": "MIC", "setting": "[2]", "result": 3.12, "unit": "µg/mL"}, {"measurement": "inhibition at 25 µg/mL", "setting": "Cryptosporidium parvum; 25 μg/mL", "result": -13, "unit": "%"}, {"measurement": "inhibition at 50 µg/mL", "setting": "Cryptosporidium parvum; 50 μg/mL", "result": -3, "unit": "%"}, {"measurement": "inhibition at 100 µg/mL", "setting": "Cryptosporidium parvum; 100 μg/mL", "result": 56, "unit": "%"}, {"measurement": "inhibition at 200 µg/mL", "setting": "Cryptosporidium parvum; 200 μg/mL", "result": 98.9, "unit": "%"}, {"measurement": "MIC", "setting": "Helicobacter pylori; 72 h, read-out: MIC against Helicobacter pylori, strain 17 (Table 5A)", "result": "> 25", "unit": "µg/mL"}, {"measurement": "MIC", "setting": "Helicobacter pylori; 72 h, read-out: MIC against Helicobacter pylori, strain 19 (Table 5A)", "result": 1.5, "unit": "µg/mL"}, {"measurement": "MIC", "setting": "Helicobacter pylori; 72 h, read-out: MIC against Helicobacter pylori, strain 20 (Table 5A)", "result": 0.8, "unit": "µg/mL"}, {"measurement": "MIC", "setting": "Helicobacter pylori; 72 h, read-out: MIC against Helicobacter pylori, strain 40 (Table 5A)", "result": 0.8, "unit": "µg/mL"}, {"measurement": "MIC", "setting": "Helicobacter pylori; 72 h, read-out: MIC against Helicobacter pylori, strain 43 (Table 5A)", "result": 1.5, "unit": "µg/mL"}, {"measurement": "MIC", "setting": "Helicobacter pylori; 72 h, read-out: MIC against Helicobacter pylori, strain 76 (Table 5A)", "result": 25, "unit": "µg/mL"}, {"measurement": "MIC", "setting": "Helicobacter pylori; ATCC43504, 72 h, read-out: MIC against Helicobacter pylori, strain ATCC 43504 (Table 5A)", "result": "> 25", "unit": "µg/mL"}]}
{"smiles": "O=C(Nc1ccc(OC(F)(F)F)cc1)O[C@@H]1COc2nc([N+](=O)[O-])cn2C1", "note": "[PA-1297, 4-(Trifluoromethoxy)phenyl Carbamate of 3S Hydroxy-6-nitro-2H-3,4-dihydo-[2-1b]imidazopyran]", "values": [{"measurement": "MIC", "setting": "[1]", "result": 0.015, "unit": "µg/mL"}, {"measurement": "MIC", "setting": "[2]", "result": 0.78, "unit": "µg/mL"}, {"measurement": "Average RLUs, M. tuberculosis (rMTB) in spleens", "setting": "[3]", "result": "66,473 RLUs"}, {"measurement": "Average RLUs, M. tuberculosis (rMTB) in lungs", "setting": "[4]", "result": "3,354 RLUs"}, {"measurement": "% Eradication", "setting": "[5]; once daily 25 mg/kg", "result": 0, "unit": "%"}, {"measurement": "% Eradication", "setting": "[5]; twice daily 5 mg/kg", "result": 0, "unit": "%"}, {"measurement": "% Eradication", "setting": "[5]; twice daily 50 mg/kg", "result": 0, "unit": "%"}, {"measurement": "% Survival", "setting": "Helicobacter felis", "result": 100, "unit": "%"}]}
{"smiles": "O=C(Nc1ccc(C(F)(F)F)cc1)O[C@@H]1COc2nc([N+](=O)[O-])cn2C1", "note": "[PA-1327, 4-(Trifluoromethyl)phenyl Carbamate of 3S Hydroxy-6-nitro-2H-3,4-dihydo-[2-1b]imidazopyran]", "values": [{"measurement": "MIC", "setting": "[1]", "result": 0.25, "unit": "µg/mL"}, {"measurement": "Average RLUs, M. tuberculosis (rMTB) in spleens", "setting": "[3]", "result": "68,362 RLUs"}, {"measurement": "Average RLUs, M. tuberculosis (rMTB) in lungs", "setting": "[4]", "result": "1,561 RLUs"}]}
{"smiles": "O=C(NCc1ccc(OC(F)(F)F)cc1)O[C@@H]1COc2nc([N+](=O)[O-])cn2C1", "note": "[PA-1328, 4-(Trifluoromethoxy)benzyl Carbamate of 3S Hydroxy-6-nitro-2H-3,4-dihydo-[2-1b]imidazopyran]", "values": [{"measurement": "MIC", "setting": "[1]", "result": 0.03, "unit": "µg/mL"}, {"measurement": "Average RLUs, M. tuberculosis (rMTB) in spleens", "setting": "[3]", "result": "251,264 RLUs"}, {"measurement": "Average RLUs, M. tuberculosis (rMTB) in lungs", "setting": "[4]", "result": "3,000 RLUs"}]}
{"smiles": "O=C(N[C@@H]1COc2nc([N+](=O)[O-])cn2C1)OCc1ccc(OC(F)(F)F)cc1", "note": "[PA-1343]", "values": [{"measurement": "MIC", "setting": "[1]", "result": 0.015, "unit": "µg/mL"}, {"measurement": "Average RLUs, M. tuberculosis (rMTB) in spleens", "setting": "[3]", "result": "51,928 RLUs"}, {"measurement": "Average RLUs, M. tuberculosis (rMTB) in lungs", "setting": "[4]", "result": 606, "unit": "RLUs"}, {"measurement": "% Survival", "setting": "Helicobacter felis", "result": "00", "unit": "%"}, {"measurement": "MIC", "setting": "Helicobacter pylori; 72 h, read-out: MIC against Helicobacter pylori, strain B40, Met-S, Clar-S (Table 5B)", "result": 0.8, "unit": "µg/mL"}, {"measurement": "MIC", "setting": "Helicobacter pylori; 72 h, read-out: MIC against Helicobacter pylori, strain B76, Met-R, Clar-S (Table 5B)", "result": 12, "unit": "µg/mL"}, {"measurement": "MIC", "setting": "Helicobacter pylori; 72 h, read-out: MIC against Helicobacter pylori, strain C1649, Met-R, Clar-R (Table 5B)", "result": 12, "unit": "µg/mL"}, {"measurement": "MIC", "setting": "Helicobacter pylori; 72 h, read-out: MIC against Helicobacter pylori, strain C11403, Met-S, Clar-R (Table 5B)", "result": 1.5, "unit": "µg/mL"}, {"measurement": "MIC", "setting": "Helicobacter pylori; 72 h, read-out: MIC against Helicobacter pylori, strain C19765 (Table 5B)", "result": 12, "unit": "µg/mL"}, {"measurement": "MIC", "setting": "Helicobacter pylori; 72 h, read-out: MIC against Helicobacter pylori, strain RD26, Met-S, Clar-S (Table 5B)", "result": 3, "unit": "µg/mL"}, {"measurement": "MIC", "setting": "Helicobacter pylori; 72 h, read-out: MIC against Helicobacter pylori, strain rd26, Met-S, Clar-S (Table 5B)", "result": 2, "unit": "µg/mL"}, {"measurement": "MIC", "setting": "Helicobacter pylori; ATCC43504, 72 h, read-out: MIC against Helicobacter pylori, strain ATCC 43504, Met-R, Clar-S (Table 5B)", "result": 10, "unit": "µg/mL"}, {"measurement": "MIC", "setting": "Helicobacter pylori; ATCC43526, 72 h, read-out: MIC against Helicobacter pylori, strain ATCC 43526, Met-R, Clar-S (Table 5B)", "result": 12, "unit": "µg/mL"}, {"measurement": "MIC", "setting": "Helicobacter pylori; ATCC43579, 72 h, read-out: MIC against Helicobacter pylori, strain ATCC 43579, Met-S, Clar-S (Table 5B)", "result": 1.5, "unit": "µg/mL"}, {"measurement": "MIC", "setting": "Helicobacter pylori; ATCC43629, 72 h, read-out: MIC against Helicobacter pylori, strain ATCC 43629, Met-S, Clar-S (Table 5B)", "result": 3, "unit": "µg/mL"}]}
